In ChEMBL document CHEMBL1201862, “PubChem BioAssay data set” (2004):
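The compound was tested at five concentrations on cells cultured in 96-well plates, with a 48-hour exposure period. GI50 = concentration required for 50% inhibition of growth.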 Activity calls are given as the source filed them. Rule as the data show it: active = GI50 up to about 1.1 µM and inactive = higher.

What was measured:
Test in all cases: NCI-60 cell line screen, 48 h
[1] = test system: SK-OV-3
[2] = test system: NCI-H522
[3] = test system: HOP-92
[4] = test system: UACC-257
[5] = test system: SNB-75
[6] = test system: CCRF-CEM
[7] = test system: SW-620
[8] = test system: KM12
[9] = test system: COLO 205
[10] = test system: NCI/ADR-RES
[11] = test system: T47D
[12] = test system: Malme-3M
[13] = test system: OVCAR-3
[14] = test system: A498
[15] = test system: SNB-19
[16] = test system: K562
[17] = test system: 786-0
[18] = test system: OVCAR-5
[19] = test system: HCT-15
[20] = test system: Hs-578T
[21] = test system: NCI-H460
[22] = test system: EKVX
[23] = test system: DU-145
[24] = test system: U-251
[25] = test system: SF-295
[26] = test system: CAKI-1
[27] = test system: UACC-62
[28] = test system: OVCAR-8
[29] = test system: MDA-MB-435
[30] = test system: RPMI-8226
[31] = test system: TK-10
[32] = test system: A549
[33] = test system: NCI-H23
[34] = test system: HCC 2998
[35] = test system: HL-60
[36] = test system: HT-29
[37] = test system: LOX IMVI
[38] = test system: OVCAR-4
[39] = test system: MOLT-4
[40] = test system: IGROV-1
[41] = test system: HCT-116
[42] = test system: UO-31
[43] = test system: ACHN
[44] = test system: SR
[45] = test system: BT-549
[46] = test system: RXF 393
[47] = test system: M14
[48] = test system: SK-MEL-2
[49] = test system: SK-MEL-5
[50] = test system: NCI-H226
[51] = test system: SF-268
[52] = test system: PC-3
[53] = test system: HOP-62
[54] = test system: MDA-MB-231
[55] = test system: SK-MEL-28
[56] = test system: MCF7
[57] = test system: SN12C
[58] = test system: SF-539
[59] = test system: MDA-N

Measured: GI50

COC(=O)n1c(=O)n(-c2ccccc2)c(=O)n1C(=O)Nc1ccccc1
> 100 µM: [19]
inactive: [1] > 100 µM | [2] > 100 µM | [3] > 100 µM | [4] > 100 µM | [5] > 100 µM | [6] 96.2 µM | [7] > 100 µM | [8] > 100 µM | [9] > 100 µM | [10] > 100 µM | [11] > 100 µM | [12] > 100 µM | [13] > 100 µM | [14] > 100 µM | [15] > 100 µM | [16] 51.3 µM | [17] > 100 µM | [18] > 100 µM | [20] > 100 µM | [21] > 100 µM | [22] > 100 µM | [23] > 100 µM | [24] > 100 µM | [25] > 100 µM | [26] > 100 µM | [27] > 100 µM | [28] > 100 µM | [29] > 100 µM | [30] 96.4 µM | [31] > 100 µM | [32] > 100 µM | [33] > 100 µM | [34] > 100 µM | [35] > 100 µM | [36] > 100 µM | [37] > 100 µM | [38] 3.42 µM | [39] > 100 µM | [40] > 100 µM | [41] > 100 µM | [42] > 100 µM | [43] > 100 µM | [44] > 100 µM | [45] > 100 µM | [46] > 100 µM | [47] > 100 µM | [48] > 100 µM | [49] > 100 µM | [50] > 100 µM | [51] > 100 µM | [52] > 100 µM | [53] > 100 µM | [54] > 100 µM | [55] > 100 µM

O=C(c1ccccc1)n1c2ccc(Br)cc2c2nc3ccccc3nc21
> 100 µM: [19]
inactive: [2] 43.7 µM | [3] > 100 µM | [4] > 100 µM | [5] 46.2 µM | [6] 58.9 µM | [7] > 100 µM | [8] > 100 µM | [9] > 100 µM | [10] > 100 µM | [12] > 100 µM | [13] 34.9 µM | [15] > 100 µM | [56] 43.8 µM | [57] > 100 µM | [16] 72.8 µM | [17] 37.8 µM | [18] > 100 µM | [21] 71 µM | [22] > 100 µM | [23] > 100 µM | [24] 65 µM | [25] > 100 µM | [26] > 100 µM | [27] > 100 µM | [28] > 100 µM | [58] > 100 µM | [29] > 100 µM | [30] 27.7 µM | [31] > 100 µM | [33] > 100 µM | [34] > 100 µM | [35] > 100 µM | [36] > 100 µM | [37] > 100 µM | [38] 48.6 µM | [39] 46.9 µM | [59] > 100 µM | [40] 67.6 µM | [41] > 100 µM | [42] 45.8 µM | [43] 57.1 µM | [44] > 100 µM | [45] > 100 µM | [46] > 100 µM | [47] > 100 µM | [48] 95.3 µM | [49] > 100 µM | [50] > 100 µM | [51] > 100 µM | [52] 43.2 µM | [53] 15.9 µM | [54] > 100 µM | [55] > 100 µM

CCOC(=O)c1[nH]c2cccc3c2c1CC(Br)C3=O (stereo not given)
3.72 µM: [19]
inactive: [1] 22.7 µM | [3] 16.7 µM | [4] 14.4 µM | [6] 3.83 µM | [7] 2.34 µM | [8] 15.8 µM | [9] 14 µM | [10] 15.3 µM | [11] 15.9 µM | [12] 14.5 µM | [13] 13.2 µM | [14] 17.7 µM | [15] 15.7 µM | [56] 22.5 µM | [57] 16.7 µM | [17] 4.72 µM | [18] 19 µM | [21] 22.3 µM | [22] 17.5 µM | [23] 16.1 µM | [24] 14.9 µM | [25] 17.2 µM | [26] 11.2 µM | [28] 16.6 µM | [58] 16.4 µM | [29] 11.7 µM | [30] 5.02 µM | [31] 14.6 µM | [32] 17.3 µM | [33] 17.6 µM | [34] 14.7 µM | [35] 2.94 µM | [36] 20 µM | [37] 15.7 µM | [39] 2.71 µM | [59] 11.6 µM | [40] 5.86 µM | [41] 2.48 µM | [42] 6.21 µM | [43] 6.98 µM | [44] 2.14 µM | [45] 16.9 µM | [47] 13.4 µM | [49] 18.5 µM | [50] 17.4 µM | [51] 15.6 µM | [52] 15.1 µM | [53] 19 µM | [54] 18.5 µM | [55] 20 µM
